Measurements taken from patent publication US9415009B2 (Pearl Therapeutics, Inc., priority 2009, dated 2016).

Assay: Particle size distribution by laser diffraction (Sympatec, Fraunhofer mode)
Assay type: physicochemical
Details: for optical diameter that 50% by volume of the micronized particles are smaller than / optical diameter that 90% by volume of the micronized particles are smaller than: micronized active agent particles
[1] = Example 4, Table 2, micronized API
[2] = Example 9, Table 9, primary particle size
[3] = Example 10, Table 11, Triple GFM primary particle size
[4] = Example 10, Table 12, Triple TFM primary particle size

With `COc1ccc(C[C@@H](C)NC[C@H](O)c2ccc(O)c(NC=O)c2)cc1` (racemic) [Coarse FF API, (±)-2-hydroxy-5-[(1RS)-1-hydroxy-2-[[(1RS)-2-(4-methoxyphenyl)-1-methylethyl]-amino]ethyl]formanilide] the Span [1] was 2.0.
`COc1ccc(C[C@@H](C)NC[C@H](O)c2ccc(O)c(NC=O)c2)cc1` (racemic) [FF API, (±)-2-hydroxy-5-[(1RS)-1-hydroxy-2-[[(1RS)-2-(4-methoxyphenyl)-1-methylethyl]-amino]ethyl]formanilide] gave a Span [2] of 1.8, a Span [3] of 1.9 and a Span [4] of 1.9. It also gave a Span (Example 11, Table 14) of 1.8.
In the case of `COc1ccc(C[C@@H](C)NC[C@H](O)c2ccc(O)c(NC=O)c2)cc1` (racemic) [Fine FF API, (±)-2-hydroxy-5-[(1RS)-1-hydroxy-2-[[(1RS)-2-(4-methoxyphenyl)-1-methylethyl]-amino]ethyl]formanilide], the Span [1] is reported as 1.5 and the “d90 (μm)” value [1] is reported as 2.3 μm.
For `CCC(=O)O[C@]1(C(=O)SCF)[C@H](C)C[C@H]2[C@@H]3C[C@H](F)C4=CC(=O)C=C[C@]4(C)[C@@]3(F)[C@@H](O)C[C@@]21C` [FP, S-(fluoromethyl)6^α,9-difluoro-11^β-17-dihydroxy-16^α-methyl-3-oxoandrosta-1,4-diene-17^β-carbothioate, 17-propionate], the “optical diameter that 50% by volume of the micronized particles are smaller than” value (“optical diameter that 50% by volume” for short) was 2.6 μm and the “optical diameter that 90% by volume of the micronized particles are smaller than” value (from here on “optical diameter that 90% by volume”) was 6.6 μm.
In the case of `C[C@@H]1C[C@H]2[C@@H]3CCC4=CC(=O)C=C[C@]4(C)[C@@]3(Cl)[C@@H](O)C[C@]2(C)[C@@]1(OC(=O)c1ccco1)C(=O)CCl` [MF, 9α,21-dichloro-11β,17-dihydroxy-16α-methylpregna-1,4-diene-3,20-dione 17-(2-furoate)], the Span [2] is reported as 2.2, the “×10 (μm)” value [2] is reported as 0.4 μm and the “×50 (μm)” value [2] is reported as 1.1 μm. The “×90 (μm)” value [2] was 2.8 μm, the Span [3] was 1.9 and the “d10 (μm)” value [3] was 0.4 μm. For the same molecule, the “d50 (μm)” value [3] was 1.0 μm, the “d90 (μm)” value [3] was 2.3 μm and the Span [4] was 2.2. The “d10 (μm)” value [4] was 0.4 μm, the “d50 (μm)” value [4] was 1.1 μm and the “d90 (μm)” value [4] was 2.8 μm. For the same molecule, the “optical diameter that 50% by volume” value was 1.6 μm and the “optical diameter that 90% by volume” value was 3.5 μm.
With `C[N+]1(C)[C@@H]2C[C@@H](OC(=O)C(O)(c3cccs3)c3cccs3)C[C@H]1[C@@H]1O[C@@H]12` [Micronized Tiotropium Bromide Anhydrous, tiotropium bromide] the Span [4] was 2.7, the “d10 (μm)” value [4] was 0.5 μm and the “d50 (μm)” value [4] was 1.3 μm. The “d90 (μm)” value [4] was 3.9 μm.
For `OCc1cc(C(O)CNCCCCCCOCCCCc2ccccc2)ccc1O` (stereo not drawn) [SX, 4-hydroxy-α1-[[[6-(4-phenylbutoxy)hexyl]amino]methyl]-1,3-benzenedimethanol, 1-hydroxy-2-naphthalenecarboxylate], the “optical diameter that 50% by volume” value was 2 μm and the “optical diameter that 90% by volume” value was 3.9 μm.
